In patent publication US12030903B2, “Antiviral compounds” (Gilead Sciences, Inc., priority 2020, dated 2024):

Legend:
[1] = test system: Dengue serotype 2 New Guinea C (NGC) strain; assay: DENV-2 Huh-7 EC50 (qPCR of viral RNA in infected Huh7 cells); type: cell-based; details: Dengue virus, DENV2, Huh-7, Huh7 cells infected with Dengue serotype 2 NGC, MOI=0.1, 48 hours
Protocol: Huh7 (Human hepatocarcinoma 7) cells were maintained in 10% FCS-containing DMEM complete media. On the day of the assay, cells were trypsinized (0.1% Trypsin-EDTA), washed and infected for 2 hours in serum-free DMEM with Dengue serotype 2 New Guinea C (NGC) strain at MOI=0.1 with gentle agitation at 37° C. After 2 hours, cells were washed with serum-free media and suspended in 10% FCS-containing DMEM (Gibco, supplemented with sodium pyruvate, NEAA, Penicillin-Streptomycin). 10^5 cells were plated in triplicate in 96-well plates with compounds dispensed at graded doses (Hewlett-Packard D300 Digital Dispenser). All wells were normalized to 0.25% DMSO. At 48 hours, cells were washed with 1× PBS and all supernatants removed. Total RNA was extracted using RNEasy 96 plates (Qiagen) and used to generate first-strand cDNA using XLT cDNA 5× Supermix (QuantaBio). cDNA was used as a template in a Taqman qPCR duplex reaction specific to DENV2 viral and GAPDH gene expression. EC50 values were determined using Prism Graphpad software, with normalization to a positive control and no compound negative control wells.

[2] = test system: Dengue 2, New Guinea strain (NGC); assay: DENV-2 moDC EC50 (qPCR of viral RNA in infected moDCs); type: cell-based, New Guinea strain (NGC); human moDCs; details: Dengue virus, human moDCs infected with Dengue 2 NGC, MOI=0.1, 48 hours
Protocol: Example 82. DENV-2 moDC EC50
Human monocyte-derived dendritic cells (moDCs) were derived from CD14+ monocytes (AllCells) cultured in Human Mo-DC Differentiation medium containing GM-CSF and IL-4 (Miltenyi Biotec). On day 7, moDCs were harvested by mechanical disruption, washed and suspended in serum-free RPMI. moDCs were infected with Vero-derived Dengue 2, New Guinea strain (NGC) at a MOI=0.1 for two hours in serum-free RPMI with gentle agitation at 37° C. Cells were washed and resuspended in 10% serum-containing RPMI (Gibco, supplemented with sodium pyruvate, NEAA, Penicillin-Streptomycin). […] were plated in triplicate in 96-well plates with compounds dispensed at graded doses (Hewlett-Packard D300 Digital Dispenser). All wells were normalized to 0.25% DMSO. At 48 hours, cells were washed with 1×PBS and all supernatants removed. Total RNA was extracted using RNEasy 96 plates (Qiagen) and used to generate first-strand cDNA using XLT cDNA 5× Supermix (QuantaBio). cDNA was used as a template in a Taqman qPCR duplex reaction specific to DENV2 viral and GAPDH gene expression. EC50 values were determined using Prism Graphpad software, with normalization to a positive control and no compound negative control wells.

[3] = HEp-2 CC50 (cytotoxicity in uninfected HEp-2 cells); type: cell-based; details: human, CellTiter Glo
Protocol: Instead, an uninfected cell mixture at the same density is added at 20 uL/well to plates containing prediluted compounds, also at 100 nL/sample. Assay plates are then incubated for 4 days followed by a cell viability test using the same CellTiter Glo reagent addition and measurement of luminescent readouts. Untreated cell and cells treated at 2 μM puromycin (Sigma, St. Louis, MO) serve as 100% and 0% cell viability control, respectively.

[4] = moDC CC50 (CellTiter Glo viability); type: cell-based, Human; details: human, uninfected moDCs
Protocol: Human monocyte-derived dendritic cells (moDCs) were derived from CD14+ monocytes (AllCells) cultured in Human Mo-DC Differentiation medium containing GM-CSF and IL-4 (Miltenyi Biotec). On day 7, moDCs were harvested by mechanical disruption, washed and cultured in triplicate at […] cells/well in 96-well plates with compounds dispensed at graded doses (Hewlett-Packard D300 Digital Dispenser). All wells were normalized to 0.25% DMSO. After 48 hours, CellTiter Glo (Promega) was added and incubated for 10 minutes at room temp before reading on a luminometer. % viability curves were calculated against no compound and no cell control wells. CC50 values were determined using Prism Graphpad software.

RSV strain A2 = assay: RSV HEp-2 EC50 (infectious cytopathic cell protection assay); type: cell-based, RSV strain A2; HEp-2 cells; details: human respiratory syncytial virus, HEp-2, 96 h, read-out: RSV Hep-2 EC50
Protocol: Example 86. RSV HEp-2 EC50
Antiviral activity against RSV is determined using an infectious cytopathic cell protection assay in HEp-2 cells. In this assay, compounds inhibiting viral infection and/or replication produce a cytoprotective effect against the virus-induced cell killing that can be quantified using a cell viability reagent. The techniques used here are novel adaptations of methods described in published literature (Chapman et al., Antimicrob Agents Chemother. 2007, 51(9):3346-53.)
HEp-2 cells are obtained from ATCC (Manassas, VI) and maintained in MEM media supplemented with 10% fetal bovine serum and penicillin/streptomycin. Cells are passaged twice a week and kept at subconfluent stage. Commercial stock of RSV strain A2 (Advanced Biotechnologies, Columbia, MD) is titered before compound testing to determine the appropriate dilution of the virus stock that generates desirable cytopathic effect in HEp-2 cells.
For antiviral tests, HEp-2 cells are grown in large cell culture flasks to near confluency but not fully so. The compounds to be tested are prediluted in DMSO in 384-well compound dilution plates, either in an 8 or 40 sample per plate standardized dose response format. 3-fold serial dilution increments of each test compound are prepared in the plates and test samples are transferred via acoustic transfer apparatus (Echo, Labcyte) at 100 nL per well into cell culture assay 384-well plates. Each compound dilution is transferred in single or quadruplicate samples into dry assay plates, which are stored until assay is ready to go. The positive and negative controls are laid out in opposite on ends of the plate in vertical blocks (1 column).
Subsequently, an infectious mixture is prepared using an appropriate dilution of virus stock previously determined by titration with cells at a density of 50,000/mL and 20 uL/well is added to test plates w/compounds via automation (uFlow, Biotek). Each plate includes negative and positive controls (16 replicates each) to create 0% and 100% virus inhibition standards, respectively. Following the infection with RSV, testing plates are incubated for 4 days in a 37° C. cell culture incubator. After the incubation, a cell viability reagent, Cell TiterGlo (Promega, Madison, WI) is added to the assay plates, which are incubated briefly, and a luminescent readout is measured (Envision, Perkin Elmer) in all the assay plates. The RSV-induced cytopathic effect, percentage inhibition, is determined from the levels of remaining cell viability. […] Various potent anti-RSV tool compounds are used as positive controls for antiviral activity.

[5] = Huh-7 CC50 (CellTiter Glo viability); type: cell-based, Human; details: human, Huh7 hepatocarcinoma cells
Protocol: Human hepatocarcinoma 7 (Huh7) cells were maintained in 10% FCS-containing complete DMEM. On day of assay, cells were trypsinized with 0.1% Trypsin-EDTA, washed and cultured in triplicate at 1-2×10^4 cells/well in 96-well plates with compounds dispensed at graded doses (Hewlett-Packard D300 Digital Dispenser). All wells were normalized to 0.25% DMSO. After 48 hours, CellTiter Glo (Promega) was added and incubated for 10 minutes at room temp before reading on a luminometer. % viability curves were calculated against no compound and no cell control wells. CC50 values were determined using Prism Graphpad software.

CC(C)OC(=O)[C@H](C)N[P@](=O)(OC[C@@]1(CF)O[C@@H](c2ccc3c(N)ncnn23)[C@H](O)[C@@H]1O)Oc1ccccc1 (single isomer, unassigned) [Example 12]
EC50 [1]: 0.453 µM
EC50 [2]: 0.753 µM
CC50 at 4 days [3]: > 100 µM
CC50 at 48 h [4]: > 25 µM
EC50 (RSV strain A2): 1.37 µM
CC50 at 48 h [5]: > 25 µM

CCCCCCOC(=O)[C@H](C)N[P@@](=O)(OC[C@@]1(CF)O[C@@H](c2ccc3c(N)ncnn23)[C@H](O)[C@@H]1O)Oc1ccccc1 (single isomer, unassigned) [Example 18]
EC50 [1]: 0.384 µM
EC50 [2]: 0.264 µM
CC50 at 4 days [3]: > 100 µM
CC50 at 48 h [4]: > 10.5 µM
EC50 (RSV strain A2): 1.3 µM
CC50 at 48 h [5]: > 25 µM

CCCCCCOC(=O)[C@H](C)N[P@](=O)(OC[C@@]1(CF)O[C@@H](c2ccc3c(N)ncnn23)[C@H](O)[C@@H]1O)Oc1ccccc1 (single isomer, unassigned) [Example 19]
EC50 [1]: 0.416 µM
EC50 [2]: 0.212 µM
CC50 at 4 days [3]: > 97.1 µM
CC50 at 48 h [4]: 10.9 µM
EC50 (RSV strain A2): 0.722 µM
CC50 at 48 h [5]: > 25 µM

CCC(CC)COC(=O)[C@H](C)N[P@](=O)(OC[C@@]1(CF)O[C@@H](c2ccc3c(=N)n(COP(=O)(O)O)cnn23)[C@H](O)[C@@H]1O)Oc1ccccc1 (single isomer, unassigned) [Example 34]
EC50 [1]: 0.165 µM
EC50 [2]: 0.334 µM
CC50 at 48 h [4]: 7.66 µM
CC50 at 48 h [5]: 6.47 µM

CCCCOC(=O)[C@H](C)N[P@](=O)(OC[C@@]1(CF)O[C@@H](c2ccc3c(N)ncnn23)[C@H](O)[C@@H]1O)Oc1ccccc1 (single isomer, unassigned) [Example 46]
EC50 [1]: 0.386 µM
EC50 [2]: 0.158 µM
CC50 at 4 days [3]: 37.1 µM
CC50 at 48 h [4]: 3.35 µM
EC50 (RSV strain A2): 0.236 µM
CC50 at 48 h [5]: 10.2 µM

CC(C)C(=O)O[C@H]1[C@H](c2ccc3c(N)ncnn23)O[C@](CF)(COP(=O)(N[C@@H](C)C(=O)OC2CCCCC2)Oc2ccccc2)[C@H]1OC(=O)C(C)C (single isomer, unassigned) [Example 63]
EC50 [1]: 0.602 µM
EC50 [2]: 0.321 µM
CC50 at 4 days [3]: 19.1 µM
CC50 at 48 h [4]: 5.6 µM
EC50 (RSV strain A2): 2.42 µM
CC50 at 48 h [5]: 10.7 µM

C[C@H](NP(=O)(OC[C@@]1(CF)O[C@@H](c2ccc3c(N)ncnn23)[C@H](O)[C@@H]1O)Oc1ccccc1)C(=O)OCC(C)(C)C (stereo partly drawn) [Example 3, neopentyl ((((2R,3S,4R,5S)-5-(4-aminopyrrolo[2,1-f][1,2,4]triazin-7-yl)-2-(fluoromethyl)-3,4-dihydroxytetrahydrofuran-2-yl)methoxy)(phenoxy)phosphoryl)-L-alaninate]
EC50 [1]: 0.092 µM
EC50 [2]: 0.156 µM
CC50 at 4 days [3]: > 100 µM
CC50 at 48 h [4]: > 11.1 µM
EC50 (RSV strain A2): 0.077 µM
CC50 at 48 h [5]: > 25 µM

C[C@H](NP(=O)(OC[C@@]1(CF)O[C@@H](c2ccc3c(N)ncnn23)[C@H](O)[C@@H]1O)Oc1ccccc1)C(=O)OCC(C)(C)C(F)(F)F (stereo partly drawn) [Example 53, 3,3,3-trifluoro-2,2-dimethylpropyl ((((2R,3S,4R,5S)-5-(4-aminopyrrolo[2,1-f][1,2,4]triazin-7-yl)-2-(fluoromethyl)-3,4-dihydroxytetrahydrofuran-2-yl)methoxy)(phenoxy)phosphoryl)-L-alaninate]
EC50 [1]: 0.419 µM
CC50 at 4 days [3]: > 100 µM
EC50 (RSV strain A2): 0.565 µM
CC50 at 48 h [5]: 19.7 µM

CCC(CC)COC(=O)[C@H](C)N[P@](=O)(OC[C@@]1(CF)O[C@@H](c2ccc3c(N)ncnn23)[C@H](OC(C)=O)[C@@H]1OC(C)=O)Oc1ccccc1 [Example 60, (2R,3S,4S,5S)-5-(4-aminopyrrolo[2,1-f][1,2,4]triazin-7-yl)-2-((((S)-(((S)-1-(2-ethylbutoxy)-1-oxopropan-2-yl)amino)(Phenoxy)phosphoryl)oxy)methyl)-2-(fluoromethyl)tetrahydrofuran-3,4-diyl diacetate]
EC50 [1]: 1.21 µM
CC50 at 4 days [3]: 36.2 µM
EC50 (RSV strain A2): 1.1 µM
CC50 at 48 h [5]: > 24.8 µM

CCOC(=O)[C@@H](NP(=O)(OC[C@@]1(CF)O[C@@H](c2ccc3c(N)ncnn23)[C@H](O)[C@@H]1O)Oc1ccccc1)C(C)C (stereo partly drawn) [Example 69, ethyl ((((2R,3S,4R,5S)-5-(4-aminopyrrolo[2,1-f][1,2,4]triazin-7-yl)-2-(fluoromethyl)-3,4-dihydroxytetrahydrofuran-2-yl)methoxy)(phenoxy)phosphoryl)-L-valinate]
EC50 [1]: > 25 µM
CC50 at 4 days [3]: > 50 µM
EC50 (RSV strain A2): > 50 µM
CC50 at 48 h [5]: > 25 µM

C[C@H](N[P@](=O)(OC[C@@]1(CF)O[C@@H](c2ccc3c(N)ncnn23)[C@H](O)[C@@H]1O)Oc1ccccc1)C(=O)OC1COC1 [Example 72, oxetan-3-yl ((S)-(((2R,3S,4R,5S)-5-(4-aminopyrrolo[2,1-f][1,2,4]triazin-7-yl)-2-(fluoromethyl)-3,4-dihydroxytetrahydrofuran-2-yl)methoxy)(phenoxy)phosphoryl)-L-alaninate]
EC50 [1]: 12.4 µM
CC50 at 4 days [3]: > 50 µM
EC50 (RSV strain A2): 15.6 µM
CC50 at 48 h [5]: > 25 µM
